Patent US20090232793A1, “Elastase inhibitor and acute leukemia” (YEDA RESEARCH AND DEVELOPEMENT CO., LTD., priority 2004, published 2009)
The star is where a group is joined. MeOSuc = COC(=O)CCC(=O)*; CH2Cl = ClC*

What was measured:
[1] = system: AML cells, primary and cell lines; test: in vitro transwell migration assay of AML cells; assay type: cell-based, human; settings: for spontaneous migration: in absence of SDF-1, 30 min pre-treatment, data not shown
Protocol: (§1) (A) In vitro transwell migration assay of AML cells, either untreated or treated for 30 minutes with elastase inhibitor, 10 μg/ml EI (MeOSuc-AAPV-CMK) (A), anti elastase Abs (B) or a1-antitrypsin (a1-AT) (C). […] (D) Immunocytochemical analysis of primary AML cells on poly-L-lysine coated surfaces. Cells were pre-treated for 30 minutes with elastase inhibitor (EI) or left untreated, allowed to adhere in the absence (−) or presence of 200 ng/ml SDF-1, fixed and indirectly immunolabeled with anti-CXCR4 and anti-elastase Ab. Original magnification 100×.
Elastase inhibitor decreases SDF-1 induced migration of AML cells. To study the role of elastase in migration of AML cells, we evaluated the effect of elastase inhibition on spontaneous, or SDF-1-induced AML migration by in vitro transwell assay. The migration assay was carried out as follows: a total of […] RPMI supplemented with 10% FCS in the presence or absence of 125 ng/mL recombinant human SDF-1 (rhSDF-1) (Peprotech, Rocky Hill, N.J.) was added to the lower chamber of a Costar 24-well transwell plates with […] pore filters (Corning, N.Y.). One hundred thousand primary MNC leukemic cells or AML cell lines with or without pretreatment for 30 min. with elastase inhibitor (EI) MeOSuc-AAPV-CMK (10 μg/ml Calbiochem, La jolla, Calif.) or monoclonal mouse anti human neutrophil elastase Ab (50-100 ul of 70 μg/ml, Dako, Glostrup, Denmark) were added to the upper chamber and were allowed to migrate to the lower chamber for 4 hours at 37° C. Migrating cells were collected from the lower chamber and counted using a FACSCalibur (Becton Dickinson).

AML CXCR4 expression = test: cell surface CXCR4 expression on AML cells by FACS; assay type: cell-based, human; settings: data not shown
Excerpt: To test whether the decreased migration by elastase inhibition is eventually due to reduction in CXCR4 expression, we examined the effect of elastase inhibition on AML CXCR4 expression. […] Thus, it appears that the role of elastase in migration of AML cells is not working via CXCR4 regulation.

primary AML cells [2] = test: immunocytochemical analysis of protrusions and cell polarization on poly-L-lysine; assay type: cell-based, human
Protocol: as §1
When leukemic cells were pre-treated with elastase inhibitor (EI), the formation of SDF-1 induced protrusions was prevented (FIG. 3D). Of note, basal cell polarization in absence of SDF-1 was also abolished by EI.

primary human AML cells = test: homing of human AML cells to the BM of B2nmull NOD/SCID mice; assay type: in vivo; settings: for homing into the NOD/SCID mice BM: 30 min incubation with EI 10 μg/ml before injection, 16 hours
Protocol: In order to assess the effect of elastase inhibition on the in vivo migration (or homing) of human AML cells to the BM, primary AML mononuclear cells (MNC) cells (5×10^6) were injected into sublethally irradiated B2nmull NOD/SCID mice, either untreated or after 30 minute incubation with EI […].
(§2) More specifically, human primary AML MNC, enriched CD34+ AML or CB cells at the indicated cell doses were suspended in […] RPMI with 10% FCS incubated for 30 minutes in 37° C. either with or without elastase inhibitor (10 μg/ml) before injection to mice via the dorsal tail vein. Mice were sacrificed 16 hours after transplantation, BM cells flushed from both femurs and tibias bones were harvested and resuspended into single-cell suspension. The percentage of human cells was determined by immunostaining with anti-human CD45-FITC mAB (Immuno Quality Products, Groningen, The Netherlands). Human Fc receptors were blocked with human plasma (1%) and murine Fc receptors by anti-mouse CD16-CD32 (Pharmingen) (1:50). Isotype control antibodies were used in order to exclude false positive cells (BD). After staining, the cells were analyzed on a FACS Calibur (BD) using Cell Quest software.

[3] = system: normal CB enriched CD34+ cells; test: homing of normal CB CD34+ cells to the BM of B2nmull NOD/SCID mice; assay type: in vivo; settings: normal human CD34+ enriched cells; EI pre-treated 10 μg/ml; vs untreated cells
Protocol: as §2
We next examined the homing of normal enriched CD34+ cells after elastase inhibition. In order to analyze similar primitive stem cell populations, CB CD34+ cells were compared to primary enriched CD34+ AML cells of three other patients (1.5-3×10^6) with different FAB subtypes. As with MNC cells from some patients, inhibition of primary enriched CD34+ AML cells was observed. […]

[4] = system: human primary AML MNC cells; test: egress of engrafted primary AML cells from BM into the circulation of NOD/SCID mice; assay type: in vivo; settings: for BM (%) human CD45+ cells / PB (%) human CD45+ cells / PB/BM: EI 1 mg x 4 days
Protocol: In order to test this assumption, primary AML cells (20-40×10^6) were injected into sublethally irradiated NOD/SCID mice to establish human AML-mice chimerism and AML egress from the bone marrow into the circulation was monitored, two-four weeks later, in mice treated with elastase inhibitor as compared to non treated mice.
(§3) More specifically, human primary AML MNC cells (10-30×10^6) or HL60 AML cell line (20×10^6) was injected into NOD/SCID mice. Two-four weeks later, EI (1 mg) was injected once a day for 4 consecutive days. PB from mice asphyxiated with dry ice was collected by cardiac aspiration in heparinized tubes and BM was collected as mentioned above. Percentage of human cells was determined by immunofluorescence for CD45 as described above.

HL60 AML cell line = test: egress of engrafted HL60 cells from BM into the circulation of NOD/SCID mice; assay type: in vivo, human
Protocol: as §3

ML-2 = test: proliferation, viable cells by trypan blue exclusion; assay type: cell-based, human; settings: ML2; EI 10 μg/ml; 7 days in culture
Protocol: (§4) To test the role of elastase in proliferation of AML cells, primary AML cells (1×10^6/ml), AML cell lines (1×10^4/ml) or normal CD34+ enriched cord blood (CB) cells (1×10^5/ml) were grown in RPMI supplemented with 10% FCS with or without elastase inhibitor (10 μg/ml). The number of viable cells was determined on days 0, 1, 3, 5 and 7 using trypan blue exclusion.
(§5) The effect of EI on the proliferative rate of primary MNC AML cells and AML cell lines (ML-2, U937) was evaluated after 3-7 days respectively in culture. […] After 7 days in culture the number of ML2 and U937 was increased and cell proliferation was inhibited by culturing cells in the presence of EI (FIG. 6A).

U937 = test: as above; assay type: cell-based, human; settings: EI 10 μg/ml, 7 days in culture
Protocol: as §4, §5

primary AML cells [5] = test: as above; assay type: cell-based, human; settings: primary MNC AML cells; EI 10 μg/ml; 3 days in culture
Protocol: as §4, §5

[6] = system: normal CD34+ enriched cord blood (CB) cells; test: proliferation and CD34+/38- percentage of normal cord blood cells; assay type: cell-based, human
Protocol: Primary AML cells, AML cell lines and human cord blood (CB) cells with or without 10 μg/ml elastase inhibitor (EI), were cultured for 3-7 days and the number of viable cells was determined using trypan blue exclusion (A). Enriched CD34+ CB cells from full term deliveries were grown in RPMI/10% FCS with SCF, FLT3L and IL6. The percentage of CD34+/38− cells from the total enriched CD34+ CB cells cultured with and without EI was determined by FACS (B).
as §4

normal CB CD34+ cells = test: cell surface elastase expression by FACS after SDF-1; assay type: cell-based, human; settings: SDF-1 200 ng/ml for 1 and 3 hours
Protocol: (§6) Cell surface elastase on primary AML and cell lines or on normal CB CD34+ enriched cells was analyzed by flow cytometry as follows: AML cells were incubated with polyclonal rabbit anti-human elastase (Biodesign, Kennebunkport, Me.) for 30 min., washed and antibody binding was detected using secondary anti-rabbit-FITC (FIG. 2A upper panel and 2B).
(§7) In order to confirm our assumption, primary AML cells and normal CB CD34+ cells were treated with SDF-1 (200 ng/ml) for 1 and 3 hours, and expression of cell surface elastase was determined by FACS (FIG. 7).

primary AML cells [7] = test: as above; assay type: cell-based, human; settings: SDF-1 200 ng/ml for 1 and 3 hours
Protocol: as §6, §7

Question: For MeOSuc-AAPV-CH2Cl [EI], which spontaneous migration [1] is on record?
Answer: The spontaneous migration was “also reduced”.

Question: What about the “SDF-1 dependent migration of the cells” value ([1]; pre-incubation 30 min with 5-10 μg/ml EI, toward 125 ng/ml SDF-1, 4 hours, p=0.039) of the same substance?
Answer: Its value is “significantly reduced”.

Question: And the “level of cell surface CXCR4 expression” value (AML CXCR4 expression)?
Answer: The value was “did not change”.

Question: And the “formation of SDF-1 induced protrusions” value (primary AML cells [2]; 30 min pre-treatment, 200 ng/ml SDF-1)?
Answer: Its value is “prevented”.

Question: And the basal cell polarization (primary AML cells [2]; in absence of SDF-1)?
Answer: The basal cell polarization was “abolished”.

Question: And the “homing into the NOD/SCID mice BM” value (primary human AML cells; M2 and M4 primary AML cells, vs untreated cells)?
Answer: Its value is “significantly decreased”.

Question: What about the “homing to the murine BM” value (primary human AML cells; enriched CD34+ AML progenitors, EI pre-treated 10 μg/ml, vs untreated cells) of the same substance?
Answer: The value was “decreased”.

Question: What about the “homing into the NOD/SCID mice BM” value (primary human AML cells; primary M1 and M5 AML cells) of the same substance?
Answer: Its value is “not inhibited but rather increased”.

Question: And the “homing to the murine BM” value [3]?
Answer: Its value is “increased”.

Question: And the “AML cell egress to the PB” value ([4]; human primary cells, EI 1 mg once a day, 4 consecutive days, vs untreated mice)?
Answer: Its value is “decreased”.

Question: What about the “BM (%) human CD45+ cells” value ([4]; patient #1 M2) of the same substance?
Answer: The value was 80%.

Question: What about the “PB (%) human CD45+ cells” value ([4]; patient #1 M2) of the same substance?
Answer: The value was 6%.

Question: What about the PB/BM ([4]; patient #1 M2) of the same substance?
Answer: Its PB/BM is 0.07.

Question: And the “BM (%) human CD45+ cells” value ([4]; patient #2 M4)?
Answer: The value was 50%.

Question: What about the “PB (%) human CD45+ cells” value ([4]; patient #2 M4) of the same substance?
Answer: The value was 2.5%.

Question: What about the PB/BM ([4]; patient #2 M4) of the same substance?
Answer: Its PB/BM is 0.05.

Question: And the “BM (%) human CD45+ cells” value ([4]; patient #3 M4)?
Answer: Its value is 12.7%.

Question: What about the “PB (%) human CD45+ cells” value ([4]; patient #3 M4) of the same substance?
Answer: Its value is 0.5%.

Question: And the PB/BM ([4]; patient #3 M4)?
Answer: The PB/BM was 0.039.

Question: What about the “BM (%) human CD45+ cells” value ([4]; patient #4) of the same substance?
Answer: Its value is 16.9%.

Question: And the “PB (%) human CD45+ cells” value ([4]; patient #4)?
Answer: The value was 0.25%.

Question: And the PB/BM ([4]; patient #4)?
Answer: The PB/BM was 0.014.

Question: What about the “BM (%) human CD45+ cells” value (HL60 AML cell line; HL-60, EI 1 mg x 4 days) of the same substance?
Answer: The value was 4%.

Question: What about the “PB (%) human CD45+ cells” value (HL60 AML cell line; HL-60, EI 1 mg x 4 days) of the same substance?
Answer: The value was 2.4%.

Question: And the PB/BM (HL60 AML cell line; HL-60, EI 1 mg x 4 days)?
Answer: The PB/BM was 0.6.

Question: What about the “AML cell egress to the PB” value (HL60 AML cell line; human AML line, EI 1 mg once a day, 4 consecutive days, vs untreated mice) of the same substance?
Answer: Its value is “decreased”.

Question: What about the cell proliferation (ML-2) of the same substance?
Answer: Its cell proliferation is “inhibited”.

Question: What about the cell proliferation (U937) of the same substance?
Answer: The cell proliferation was “inhibited”.

Question: What about the “number of viable AML cells” value (primary AML cells [5]) of the same substance?
Answer: Its value is “significantly decreased”.

Question: What about the “percentage of primitive progenitor cells CD34+/38−” value ([6]; 3 days in culture in the presence of cytokines (SCF, FLT3L, IL6) and EI) of the same substance?
Answer: Its value is “significantly increased”.

Question: And the proliferation rate ([6]; normal CB CD34+ cells, EI 10 μg/ml)?
Answer: Its proliferation rate is “enhanced”.

Question: “SDF-1: chemokine, also called pre-B-cell growth-stimulating factor; recombinant human SDF-1 (Peprotech)” was tested. Which “cell surface elastase expression” value (normal CB CD34+ cells) did it give?
Answer: The value was “decreases”.

Question: What about the “cell surface elastase expression” value (primary AML cells [7]) of the same substance?
Answer: The value was “increase”.

Question: For a1-antitrypsin, which spontaneous migration [1] is on record?
Answer: The spontaneous migration was “affected”.
